Assay results reported in patent US10000535B2, “Template-fixed peptidomimetics” (POLYPHOR LTD., priority 2007, dated 2018).
Non-standard residues stand in square brackets, D forms with d. Residues, ends and D or L forms follow the SMILES beside them. Aze = O=C(O)[C@@H]1CCN1

Columns and labels:
Assay in all cases: Selectivity calcium flux assay, chemokine receptor panel
Type in all cases: cell-based
Settings in all cases: at 10 μM
[1] = target: T1, CXCR2 (Homo sapiens, UniProt P25025)
T1 sequence (P25025 1-360): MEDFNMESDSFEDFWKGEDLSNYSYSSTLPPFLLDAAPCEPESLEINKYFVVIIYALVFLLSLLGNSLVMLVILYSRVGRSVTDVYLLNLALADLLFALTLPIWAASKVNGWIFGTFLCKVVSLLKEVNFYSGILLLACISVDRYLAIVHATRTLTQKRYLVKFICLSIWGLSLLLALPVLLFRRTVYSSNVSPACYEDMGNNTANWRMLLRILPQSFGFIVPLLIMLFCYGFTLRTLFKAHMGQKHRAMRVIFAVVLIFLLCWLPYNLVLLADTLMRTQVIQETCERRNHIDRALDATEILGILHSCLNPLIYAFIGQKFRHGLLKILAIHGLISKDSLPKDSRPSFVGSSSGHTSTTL
Description: (§1) Selectivity was measured using the calcium flux assay on a panel of human chemokine receptor bearing cell lines (CCR1, CCR2, CCR3, CCR4, CCR5, CCR6, CCR7, CCR8, CCR9, CCR10, CXCR1, CXCR2, CXCR2, CXCR4, CXCR6 and CXCCR1) using the same method as above

[2] = target: CCR2 (Homo sapiens, UniProt P41597)
Description: as §1

[3] = target: CXCR4 chemokine receptor (Homo sapiens, UniProt P61073)
Description: as §1

[4] = target: T2, CCR4 (Homo sapiens, UniProt P51679)
T2 sequence (P51679 1-360): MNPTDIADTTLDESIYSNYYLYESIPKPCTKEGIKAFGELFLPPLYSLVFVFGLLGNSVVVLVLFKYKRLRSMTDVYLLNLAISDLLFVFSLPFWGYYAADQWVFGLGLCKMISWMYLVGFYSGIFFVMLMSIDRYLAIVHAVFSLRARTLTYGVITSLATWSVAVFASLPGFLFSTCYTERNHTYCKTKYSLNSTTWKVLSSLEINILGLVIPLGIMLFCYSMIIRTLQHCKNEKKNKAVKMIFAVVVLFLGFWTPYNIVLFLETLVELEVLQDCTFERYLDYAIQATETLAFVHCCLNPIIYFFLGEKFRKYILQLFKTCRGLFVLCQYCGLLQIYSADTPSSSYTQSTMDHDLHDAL
Description: as §1

[5] = target: CCR5 (Homo sapiens, UniProt P51681)
Description: as §1

[6] = target: T3, CCR1 (Homo sapiens, UniProt P32246)
T3 sequence (P32246 1-355): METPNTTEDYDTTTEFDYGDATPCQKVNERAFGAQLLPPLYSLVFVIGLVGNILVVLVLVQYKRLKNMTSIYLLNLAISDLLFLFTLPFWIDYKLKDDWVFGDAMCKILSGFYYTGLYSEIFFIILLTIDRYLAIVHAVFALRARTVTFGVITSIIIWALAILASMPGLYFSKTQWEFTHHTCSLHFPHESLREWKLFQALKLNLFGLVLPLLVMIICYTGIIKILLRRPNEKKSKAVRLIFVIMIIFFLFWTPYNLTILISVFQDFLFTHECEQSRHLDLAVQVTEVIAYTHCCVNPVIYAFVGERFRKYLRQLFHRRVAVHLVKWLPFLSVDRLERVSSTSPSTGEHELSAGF
Description: as §1

[7] = target: T4, CCR3 (Homo sapiens, UniProt P51677)
T4 sequence (P51677 1-355): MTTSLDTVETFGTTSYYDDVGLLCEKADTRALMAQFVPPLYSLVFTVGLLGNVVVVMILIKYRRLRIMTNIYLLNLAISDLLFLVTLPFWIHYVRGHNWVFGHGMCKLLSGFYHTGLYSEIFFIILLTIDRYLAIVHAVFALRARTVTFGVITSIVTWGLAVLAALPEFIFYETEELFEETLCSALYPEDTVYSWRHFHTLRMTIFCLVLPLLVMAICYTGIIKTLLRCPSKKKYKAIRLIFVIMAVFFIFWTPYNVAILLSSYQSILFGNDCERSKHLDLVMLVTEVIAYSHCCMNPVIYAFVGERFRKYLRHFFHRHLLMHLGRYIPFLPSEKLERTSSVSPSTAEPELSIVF
Description: as §1

[8] = target: T5, CCR9 (Homo sapiens, UniProt P51686)
T5 sequence (P51686 1-369): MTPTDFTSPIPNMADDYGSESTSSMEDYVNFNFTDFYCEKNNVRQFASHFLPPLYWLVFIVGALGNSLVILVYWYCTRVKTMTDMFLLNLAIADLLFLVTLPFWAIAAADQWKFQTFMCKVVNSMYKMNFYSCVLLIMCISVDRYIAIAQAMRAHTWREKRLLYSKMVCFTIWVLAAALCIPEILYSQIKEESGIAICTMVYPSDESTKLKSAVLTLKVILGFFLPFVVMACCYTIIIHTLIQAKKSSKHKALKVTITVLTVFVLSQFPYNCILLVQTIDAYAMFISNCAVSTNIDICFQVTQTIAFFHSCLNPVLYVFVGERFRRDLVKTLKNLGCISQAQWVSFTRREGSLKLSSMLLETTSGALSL
Description: as §1

[9] = target: CCR8 (Homo sapiens, UniProt P51685)
Description: as §1

[10] = target: CXCR6 (Homo sapiens, UniProt O00574)
Description: as §1

CCR8, sequence (P51685 whole entry): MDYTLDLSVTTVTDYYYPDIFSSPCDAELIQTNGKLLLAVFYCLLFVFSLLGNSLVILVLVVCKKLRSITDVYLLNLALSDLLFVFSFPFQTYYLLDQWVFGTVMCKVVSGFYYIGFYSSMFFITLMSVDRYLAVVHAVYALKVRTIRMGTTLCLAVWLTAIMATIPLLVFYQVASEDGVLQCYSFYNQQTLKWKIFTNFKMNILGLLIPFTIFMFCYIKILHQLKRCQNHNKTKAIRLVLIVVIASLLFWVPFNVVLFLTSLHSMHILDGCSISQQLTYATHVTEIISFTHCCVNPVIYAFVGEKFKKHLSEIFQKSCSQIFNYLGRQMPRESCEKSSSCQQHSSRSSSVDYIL
CXCR4 chemokine receptor, sequence (P61073 whole entry): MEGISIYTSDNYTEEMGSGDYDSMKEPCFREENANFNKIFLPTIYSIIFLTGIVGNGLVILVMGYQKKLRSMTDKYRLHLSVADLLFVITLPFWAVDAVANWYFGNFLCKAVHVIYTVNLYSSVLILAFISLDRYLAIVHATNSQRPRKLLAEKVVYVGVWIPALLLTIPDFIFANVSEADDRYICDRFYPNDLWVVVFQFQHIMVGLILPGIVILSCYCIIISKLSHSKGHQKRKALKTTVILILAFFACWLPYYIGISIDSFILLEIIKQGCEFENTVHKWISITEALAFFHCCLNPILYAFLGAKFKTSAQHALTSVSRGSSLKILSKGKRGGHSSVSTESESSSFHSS
CCR5, sequence (P51681 whole entry): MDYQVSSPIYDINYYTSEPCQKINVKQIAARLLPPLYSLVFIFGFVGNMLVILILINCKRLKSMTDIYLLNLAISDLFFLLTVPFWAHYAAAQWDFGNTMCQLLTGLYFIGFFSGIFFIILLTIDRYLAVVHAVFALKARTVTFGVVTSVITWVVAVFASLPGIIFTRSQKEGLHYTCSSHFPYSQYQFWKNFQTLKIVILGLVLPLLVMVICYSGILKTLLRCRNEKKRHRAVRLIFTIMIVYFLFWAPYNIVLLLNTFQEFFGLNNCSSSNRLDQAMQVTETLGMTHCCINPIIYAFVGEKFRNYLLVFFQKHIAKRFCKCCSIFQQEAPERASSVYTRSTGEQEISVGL
CXCR6, sequence (O00574 whole entry): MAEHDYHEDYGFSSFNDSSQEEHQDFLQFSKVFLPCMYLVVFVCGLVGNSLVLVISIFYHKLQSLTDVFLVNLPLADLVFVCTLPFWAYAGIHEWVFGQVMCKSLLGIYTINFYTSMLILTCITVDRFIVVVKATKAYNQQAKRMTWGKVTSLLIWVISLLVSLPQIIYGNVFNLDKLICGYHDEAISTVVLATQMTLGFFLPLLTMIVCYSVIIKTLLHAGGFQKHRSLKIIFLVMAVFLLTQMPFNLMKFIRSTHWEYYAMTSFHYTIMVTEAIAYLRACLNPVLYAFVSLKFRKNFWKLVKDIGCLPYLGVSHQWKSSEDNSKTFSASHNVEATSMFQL
CCR2, sequence (P41597 whole entry): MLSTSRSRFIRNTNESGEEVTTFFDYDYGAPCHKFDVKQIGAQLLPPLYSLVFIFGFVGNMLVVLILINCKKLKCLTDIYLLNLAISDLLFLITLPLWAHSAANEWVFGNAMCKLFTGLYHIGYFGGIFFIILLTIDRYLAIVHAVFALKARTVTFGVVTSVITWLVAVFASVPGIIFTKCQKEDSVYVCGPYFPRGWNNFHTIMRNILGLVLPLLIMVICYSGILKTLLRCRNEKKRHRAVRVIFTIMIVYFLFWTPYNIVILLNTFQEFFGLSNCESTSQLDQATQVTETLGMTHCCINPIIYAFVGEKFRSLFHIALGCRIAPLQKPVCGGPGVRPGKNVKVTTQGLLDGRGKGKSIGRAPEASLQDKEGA

N=C(N)NCCC[C@@H]1NC(=O)[C@H](Cc2c[nH]c3ccccc23)NC(=O)[C@H](Cc2ccc(O)cc2)NC(=O)[C@@H]2CCN2C(=O)[C@H]2CCCN2C(=O)CNC1=O [Example 15] (cyclo(YWRG[dP][Aze]))
highly selective: selectivity against CXCR2 [1] | selectivity against CCR2 [2] | selectivity against CXCR4 chemokine receptor [3] | selectivity against CCR4 [4] | selectivity against CCR5 [5] | selectivity against CCR1 [6] | selectivity against CCR3 [7] | selectivity against CCR9 [8] | selectivity against CCR8 [9] | selectivity against CXCR6 [10]

C[C@@H]1NC(=O)[C@H](CCCNC(=N)N)NC(=O)[C@H](Cc2c[nH]c3ccccc23)NC(=O)[C@H](Cc2ccc(O)cc2)NC(=O)[C@@H]2CCN2C(=O)[C@H]2CCCN2C1=O [Example 16] (cyclo(YWRA[dP][Aze]))
highly selective: selectivity against CXCR2 [1] | selectivity against CCR2 [2] | selectivity against CXCR4 chemokine receptor [3] | selectivity against CCR4 [4] | selectivity against CCR5 [5] | selectivity against CCR1 [6] | selectivity against CCR3 [7] | selectivity against CCR9 [8] | selectivity against CCR8 [9] | selectivity against CXCR6 [10]
